{"source": "ChEMBL document CHEMBL5126509", "about": "“Dual target inhibitors based on EGFR: Promising anticancer agents for the treatment of cancers (2017-)” (Eur J Med Chem, 2022)", "key": {"[1]": {"target": "T1, Epidermal growth factor receptor (Homo sapiens, UniProt P00533)", "T1 sequence (P00533 whole entry)": "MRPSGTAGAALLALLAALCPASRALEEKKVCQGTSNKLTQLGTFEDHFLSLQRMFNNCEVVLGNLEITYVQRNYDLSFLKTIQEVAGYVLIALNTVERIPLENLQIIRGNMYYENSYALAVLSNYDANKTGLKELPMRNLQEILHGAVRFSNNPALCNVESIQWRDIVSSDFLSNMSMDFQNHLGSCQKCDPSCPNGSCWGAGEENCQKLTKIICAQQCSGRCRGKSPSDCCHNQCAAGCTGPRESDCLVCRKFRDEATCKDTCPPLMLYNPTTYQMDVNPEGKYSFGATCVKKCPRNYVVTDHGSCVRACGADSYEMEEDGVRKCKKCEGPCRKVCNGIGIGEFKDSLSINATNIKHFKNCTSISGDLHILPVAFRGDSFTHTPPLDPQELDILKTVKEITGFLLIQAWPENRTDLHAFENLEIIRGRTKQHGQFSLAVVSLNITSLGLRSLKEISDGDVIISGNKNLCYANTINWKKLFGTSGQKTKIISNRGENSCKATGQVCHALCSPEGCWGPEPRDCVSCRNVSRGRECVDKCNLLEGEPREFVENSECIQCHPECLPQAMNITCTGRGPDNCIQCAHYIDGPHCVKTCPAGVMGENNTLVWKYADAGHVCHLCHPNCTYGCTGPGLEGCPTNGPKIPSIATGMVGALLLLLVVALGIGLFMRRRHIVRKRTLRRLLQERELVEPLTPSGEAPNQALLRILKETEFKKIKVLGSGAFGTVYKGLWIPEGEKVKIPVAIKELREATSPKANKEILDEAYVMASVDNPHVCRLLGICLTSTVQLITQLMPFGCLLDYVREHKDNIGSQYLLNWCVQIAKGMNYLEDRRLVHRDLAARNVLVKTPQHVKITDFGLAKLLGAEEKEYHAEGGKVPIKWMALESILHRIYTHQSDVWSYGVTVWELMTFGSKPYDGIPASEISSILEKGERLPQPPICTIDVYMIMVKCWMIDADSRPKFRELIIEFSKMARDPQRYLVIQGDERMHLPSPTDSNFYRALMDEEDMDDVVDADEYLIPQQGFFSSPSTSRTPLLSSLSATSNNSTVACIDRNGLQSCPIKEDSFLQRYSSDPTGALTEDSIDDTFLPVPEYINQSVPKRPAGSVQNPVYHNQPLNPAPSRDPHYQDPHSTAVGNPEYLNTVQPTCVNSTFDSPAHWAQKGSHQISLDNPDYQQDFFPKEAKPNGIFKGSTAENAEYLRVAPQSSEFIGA", "assay": "Inhibition of EGFR (unknown origin) incubated for 30 mins in presence of ATP by fluorescence based analysis"}, "[2]": {"target": "T1, Epidermal growth factor receptor", "assay": "Inhibition of EGFR (unknown origin) by ADP-Glo kinase assay"}, "[3]": {"target": "Tyrosine-protein kinase CSK (Homo sapiens, UniProt P41240)", "assay": "Inhibition of CSK (unknown origin) by ADP-Glo kinase assay"}, "[4]": {"system": "NCI-H1975", "assay": "Antiproliferative activity against human NCI-H1975 cells assessed as cell growth inhibition incubated for 72 hrs by MTS assay", "type": "functional, cell-based", "details": "NCI-H1975, 72 h"}, "[5]": {"target": "Fibroblast growth factor receptor 1 (Homo sapiens, UniProt P11362)", "assay": "Inhibition of N-terminal GST-tagged recombinant wild type human FGFR1 (398 to 822 residues) expressed in baculovirus infected Sf21 cells incubated for 1 hr in presence of ATP by caliper mobility shift assay"}, "[6]": {"target": "T2, Epidermal growth factor receptor (Homo sapiens, UniProt P00533, T790M)", "T2 sequence (P00533 25-1210 T790M limits assumed)": "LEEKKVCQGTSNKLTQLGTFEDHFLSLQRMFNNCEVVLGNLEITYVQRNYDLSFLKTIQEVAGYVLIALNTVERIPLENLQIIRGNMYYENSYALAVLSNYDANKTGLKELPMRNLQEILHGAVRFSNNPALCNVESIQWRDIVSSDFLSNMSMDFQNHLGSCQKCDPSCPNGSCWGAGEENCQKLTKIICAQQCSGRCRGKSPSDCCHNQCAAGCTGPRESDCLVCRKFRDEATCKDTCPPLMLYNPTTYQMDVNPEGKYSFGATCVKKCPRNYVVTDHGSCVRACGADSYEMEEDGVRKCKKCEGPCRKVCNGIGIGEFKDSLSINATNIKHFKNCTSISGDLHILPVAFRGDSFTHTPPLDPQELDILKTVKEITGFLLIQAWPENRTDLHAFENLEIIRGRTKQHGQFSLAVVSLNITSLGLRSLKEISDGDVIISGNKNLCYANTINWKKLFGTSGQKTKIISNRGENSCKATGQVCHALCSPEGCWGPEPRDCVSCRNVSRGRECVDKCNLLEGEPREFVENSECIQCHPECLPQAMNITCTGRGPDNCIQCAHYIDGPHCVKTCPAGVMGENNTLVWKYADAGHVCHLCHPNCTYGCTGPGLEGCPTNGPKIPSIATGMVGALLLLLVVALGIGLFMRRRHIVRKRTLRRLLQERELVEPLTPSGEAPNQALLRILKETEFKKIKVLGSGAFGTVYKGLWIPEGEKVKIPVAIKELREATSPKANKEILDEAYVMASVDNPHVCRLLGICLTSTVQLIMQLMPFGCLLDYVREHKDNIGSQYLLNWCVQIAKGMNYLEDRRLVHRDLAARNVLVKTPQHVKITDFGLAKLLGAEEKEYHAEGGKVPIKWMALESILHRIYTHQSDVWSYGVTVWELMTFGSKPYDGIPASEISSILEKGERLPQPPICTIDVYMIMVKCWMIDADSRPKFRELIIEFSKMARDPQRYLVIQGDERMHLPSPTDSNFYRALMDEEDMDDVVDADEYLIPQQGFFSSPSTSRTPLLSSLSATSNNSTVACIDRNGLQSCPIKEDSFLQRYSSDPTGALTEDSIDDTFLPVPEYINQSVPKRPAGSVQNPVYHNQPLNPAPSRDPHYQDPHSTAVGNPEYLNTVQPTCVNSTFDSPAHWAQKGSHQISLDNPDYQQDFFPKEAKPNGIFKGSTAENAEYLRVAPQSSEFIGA", "assay": "Inhibition of human EGFR T790M mutant expressed in baculovirus expression system using CAGAGAIETDKEYYTVKD as substrate preincubated for 10 mins followed by substrate and ATP addition measured after 1 hr by TR-FRET assay"}, "[7]": {"target": "T1, Epidermal growth factor receptor", "assay": "Inhibition of human EGFR expressed in baculovirus expression system using CAGAGAIETDKEYYTVKD as substrate preincubated for 10 mins followed by substrate and ATP addition measured after 1 hr by TR-FRET assay"}, "[8]": {"system": "MCF7", "assay": "Antiproliferative activity against human MCF7 assessed as cell growth inhibition measured after 72 hrs by MTT assay", "type": "functional, cell-based", "details": "MCF7, 72 h"}, "[9]": {"system": "HCT-116", "assay": "Antiproliferative activity against human HCT-116 assessed as cell growth inhibition measured after 72 hrs by MTT assay", "type": "functional, cell-based", "details": "HCT-116, 72 h"}, "[10]": {"target": "Tubulin", "assay": "Inhibition of tubulin polymerization in human HCT-116 cells incubated for 18 to 24 hrs by horseradish peroxidase based ELISA method", "type": "cell-based"}, "[11]": {"system": "A-431", "assay": "Antiproliferative activity against human A-431 cells assessed as cell growth inhibition", "type": "functional, cell-based"}, "[12]": {"target": "T1, Epidermal growth factor receptor", "assay": "Inhibition of EGFR (unknown origin)"}, "[13]": {"target": "Insulin-like growth factor 1 receptor (Homo sapiens, UniProt P08069)", "assay": "Inhibition of IGF1R (unknown origin)"}, "[14]": {"system": "SK-BR-3", "assay": "Antiproliferative activity against human SK-BR-3 cells assessed as cell growth inhibition", "type": "functional, cell-based"}, "[15]": {"system": "A549", "assay": "Antiproliferative activity against human A549 cells assessed as cell growth inhibition measured after 72 hrs by MTT assay", "type": "functional, cell-based", "details": "A549, 72 h"}, "[16]": {"system": "KG-1", "assay": "Antiproliferative activity against human KG-1 cells assessed as cell growth inhibition measured after 72 hrs by MTT assay", "type": "functional, cell-based", "details": "KG-1, 72 h"}, "[17]": {"system": "HeLa", "assay": "Antiproliferative activity against human HeLa cells assessed as cell growth inhibition measured after 72 hrs by MTT assay", "type": "functional, cell-based"}, "[18]": {"target": "Histone deacetylase", "assay": "Inhibition of HDAC in human HeLa cell nuclear extract using Boc-Lys (acetyl)-AMC as substrate preincubated for 5 mins followed by substrate addition measured after 30 mins by microplate reader analysis", "type": "cell-free"}, "[19]": {"system": "MDA-MB-231", "assay": "Antiproliferative activity against human MDA-MB-231 cells assessed as cell growth inhibition measured after 72 hrs by MTT assay", "type": "functional, cell-based", "details": "MDA-MB-231, 72 h"}, "[20]": {"system": "MDA-MB-468", "assay": "Antiproliferative activity against human MDA-MB-468 cells assessed as cell growth inhibition measured after 72 hrs by MTT assay", "type": "functional, cell-based", "details": "MDA-MB-468, 72 h"}, "[21]": {"target": "T1, Epidermal growth factor receptor", "assay": "Inhibition of EGFR (unknown origin) using FAM-labeled peptide as substrate incubated for 10 mins in presence of ATP by caliper mobility shift assay"}, "[22]": {"system": "MCF7", "assay": "Antiproliferative activity against human MCF7 cells assessed as cell growth inhibition incubated for 42 hrs by MTT assay", "type": "functional, cell-based", "details": "MCF7, 42 h"}, "[23]": {"system": "B16", "assay": "Antiproliferative activity against mouse B16 cells assessed as cell growth inhibition incubated for 42 hrs by MTT assay", "type": "functional, cell-based", "details": "B16, 42 h"}, "[24]": {"system": "HCT-116", "assay": "Antiproliferative activity against human HCT-116 cells assessed as cell growth inhibition incubated for 42 hrs by MTT assay", "type": "functional, cell-based", "details": "HCT-116, 42 h"}, "[25]": {"target": "T3, Vascular endothelial growth factor receptor 2 (Homo sapiens, UniProt P35968)", "T3 sequence (P35968 whole entry)": "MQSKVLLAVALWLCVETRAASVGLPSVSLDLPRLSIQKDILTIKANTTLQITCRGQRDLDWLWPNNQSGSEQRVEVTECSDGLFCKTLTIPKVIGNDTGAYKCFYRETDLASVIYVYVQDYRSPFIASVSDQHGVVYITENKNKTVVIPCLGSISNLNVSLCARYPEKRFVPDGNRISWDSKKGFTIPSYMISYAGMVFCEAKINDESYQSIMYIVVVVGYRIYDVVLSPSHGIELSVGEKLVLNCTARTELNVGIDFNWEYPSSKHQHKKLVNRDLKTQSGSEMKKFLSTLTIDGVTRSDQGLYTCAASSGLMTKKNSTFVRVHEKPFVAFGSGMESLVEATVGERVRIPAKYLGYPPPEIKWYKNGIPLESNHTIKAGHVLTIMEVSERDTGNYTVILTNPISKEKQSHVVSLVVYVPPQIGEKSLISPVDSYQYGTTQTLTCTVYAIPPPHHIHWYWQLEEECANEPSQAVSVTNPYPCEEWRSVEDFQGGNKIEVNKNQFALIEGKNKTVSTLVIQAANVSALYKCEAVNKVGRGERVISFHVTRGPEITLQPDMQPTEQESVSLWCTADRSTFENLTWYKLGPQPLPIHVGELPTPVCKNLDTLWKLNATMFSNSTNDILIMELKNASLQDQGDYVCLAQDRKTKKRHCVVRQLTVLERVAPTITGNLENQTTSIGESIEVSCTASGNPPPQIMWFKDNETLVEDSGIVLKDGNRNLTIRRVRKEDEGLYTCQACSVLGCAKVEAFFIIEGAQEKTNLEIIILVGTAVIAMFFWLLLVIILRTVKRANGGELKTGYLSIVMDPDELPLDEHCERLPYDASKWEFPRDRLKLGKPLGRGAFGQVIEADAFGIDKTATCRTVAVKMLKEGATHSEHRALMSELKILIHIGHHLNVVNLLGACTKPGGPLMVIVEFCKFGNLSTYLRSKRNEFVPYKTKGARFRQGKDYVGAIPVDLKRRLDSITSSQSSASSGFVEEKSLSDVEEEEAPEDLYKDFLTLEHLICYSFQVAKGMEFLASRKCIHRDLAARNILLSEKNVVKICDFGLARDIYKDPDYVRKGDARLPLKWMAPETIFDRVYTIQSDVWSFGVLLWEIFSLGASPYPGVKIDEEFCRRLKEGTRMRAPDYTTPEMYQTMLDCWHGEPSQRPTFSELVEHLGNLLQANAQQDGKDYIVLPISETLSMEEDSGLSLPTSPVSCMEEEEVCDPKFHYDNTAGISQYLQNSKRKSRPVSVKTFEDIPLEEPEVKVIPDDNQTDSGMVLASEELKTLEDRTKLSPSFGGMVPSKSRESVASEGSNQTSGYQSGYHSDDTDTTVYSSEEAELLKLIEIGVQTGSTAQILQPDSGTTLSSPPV", "assay": "Inhibition of VEGFR-2 (unknown origin) using FAM-labeled peptide as substrate incubated for 10 mins in presence of ATP by caliper mobility shift assay"}, "[26]": {"target": "Hepatocyte growth factor receptor (Homo sapiens, UniProt P08581)", "sequence (P08581 whole entry)": "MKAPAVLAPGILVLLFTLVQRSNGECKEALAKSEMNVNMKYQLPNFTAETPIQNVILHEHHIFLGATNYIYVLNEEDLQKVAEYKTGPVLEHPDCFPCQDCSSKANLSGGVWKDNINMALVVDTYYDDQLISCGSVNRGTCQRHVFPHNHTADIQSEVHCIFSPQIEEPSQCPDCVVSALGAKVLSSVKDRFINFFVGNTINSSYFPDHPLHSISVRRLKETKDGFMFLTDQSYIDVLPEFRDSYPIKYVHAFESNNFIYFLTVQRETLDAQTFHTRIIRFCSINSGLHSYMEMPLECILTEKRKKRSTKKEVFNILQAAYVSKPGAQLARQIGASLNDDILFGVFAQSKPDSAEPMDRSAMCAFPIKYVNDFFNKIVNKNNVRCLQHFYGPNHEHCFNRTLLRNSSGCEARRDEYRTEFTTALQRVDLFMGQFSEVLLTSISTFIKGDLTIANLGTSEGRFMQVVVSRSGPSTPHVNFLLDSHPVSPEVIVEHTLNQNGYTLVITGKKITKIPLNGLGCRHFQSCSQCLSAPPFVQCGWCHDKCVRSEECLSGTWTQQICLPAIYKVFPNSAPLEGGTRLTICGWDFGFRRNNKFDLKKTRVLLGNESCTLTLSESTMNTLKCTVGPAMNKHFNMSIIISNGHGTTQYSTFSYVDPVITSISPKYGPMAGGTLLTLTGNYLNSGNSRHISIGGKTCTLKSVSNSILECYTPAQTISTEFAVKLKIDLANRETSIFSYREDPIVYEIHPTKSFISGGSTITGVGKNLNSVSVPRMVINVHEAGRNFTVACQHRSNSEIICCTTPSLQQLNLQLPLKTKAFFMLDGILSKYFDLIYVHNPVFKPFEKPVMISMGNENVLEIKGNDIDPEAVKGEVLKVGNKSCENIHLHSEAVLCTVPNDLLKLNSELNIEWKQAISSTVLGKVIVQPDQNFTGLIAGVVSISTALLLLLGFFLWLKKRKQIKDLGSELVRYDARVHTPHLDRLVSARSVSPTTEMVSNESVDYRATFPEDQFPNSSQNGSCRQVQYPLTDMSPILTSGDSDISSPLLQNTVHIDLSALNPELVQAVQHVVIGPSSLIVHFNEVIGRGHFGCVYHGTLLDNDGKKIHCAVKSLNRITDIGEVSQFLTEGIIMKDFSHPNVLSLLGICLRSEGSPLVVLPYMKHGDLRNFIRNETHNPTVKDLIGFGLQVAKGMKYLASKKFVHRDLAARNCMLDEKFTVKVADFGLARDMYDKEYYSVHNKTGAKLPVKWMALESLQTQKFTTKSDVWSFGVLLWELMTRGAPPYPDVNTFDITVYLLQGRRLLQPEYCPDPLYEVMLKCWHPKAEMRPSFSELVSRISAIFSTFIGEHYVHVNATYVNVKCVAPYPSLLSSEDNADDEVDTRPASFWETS", "assay": "Inhibition of c-MET (unknown origin) incubated for 1 hr by Z-lyte kinase assay"}, "[27]": {"target": "T2, Epidermal growth factor receptor", "assay": "Inhibition of EGFR T790M mutant (unknown origin) incubated for 1 hr by Z-lyte kinase assay"}, "[28]": {"system": "NCI-H1975", "assay": "Antiproliferative activity against human NCI-H1975 cells assessed as cell growth inhibition", "type": "functional, cell-based"}, "[29]": {"target": "T3, Vascular endothelial growth factor receptor 2", "assay": "Inhibition of VEGFR2 (unknown origin)"}, "[30]": {"target": "T2, Epidermal growth factor receptor", "assay": "Inhibition of EGFR T790M mutant (unknown origin)"}, "[31]": {"target": "Epidermal growth factor receptor (Homo sapiens, UniProt P00533, L858R/T790M)", "assay": "Inhibition of EGFR L858R/T790M mutant (unknown origin)"}, "[32]": {"target": "Platelet-derived growth factor receptor beta (Homo sapiens, UniProt P09619)", "assay": "Binding affinity to GST-tagged human recombinant PDFGR beta expressed in baculovirus infected Sf9 insect cells assessed as inhibition constant using poly(Ala,Glu,Lys,Tyr) 6:2:5.1 as substrate incubated for 60 mins in presence of [gamma33P]ATP by microplate scintillation counter analysis"}, "[33]": {"target": "T1, Epidermal growth factor receptor", "assay": "Binding affinity to GST-tagged human recombinant EGFR expressed in baculovirus infected Sf9 insect cells assessed as inhibition constant using poly(Glu,Tyr) 4:1 as substrate incubated for 60 mins in presence of [gamma33P]ATP by microplate scintillation counter analysis"}}, "data": [{"smiles": "Cc1nn(-c2ccc(F)cc2)c2ncnc(Nc3ccc(F)c(Cl)c3)c12", "values": [{"measurement": "IC50", "setting": "[1]", "result": 0.186, "unit": "µM"}]}, {"smiles": "COc1ccc(CCOc2ccc(C(=O)/C=C/c3ccc(O)c(O)c3)cc2OC)cc1OC", "values": [{"measurement": "IC50", "setting": "[2]", "result": 11.1, "unit": "µM"}, {"measurement": "IC50", "setting": "[3]", "result": 5.16, "unit": "µM"}]}, {"smiles": "CN1CCN(c2ccc(Nc3ncc(Br)c(Nc4ccc5cn[nH]c5c4)n3)cc2)CC1", "values": [{"measurement": "IC50", "setting": "[4]", "result": 0.336, "unit": "µM"}, {"measurement": "IC50", "setting": "[5]", "result": 0.0176, "unit": "µM"}]}, {"smiles": "O=C(Cc1ccccc1)Nc1cccc(-c2nc3n(c2-c2ccnc(Nc4ccc(N5CCOCC5)cc4)n2)CCS3)c1", "values": [{"measurement": "IC50", "setting": "[6]", "result": 0.066, "unit": "µM"}, {"measurement": "IC50", "setting": "[7]", "result": 0.0355, "unit": "µM"}]}, {"smiles": "CCc1nnc2c(Nc3ccc(C(=O)/C=C/c4cc(OC)c(OC)c(OC)c4)cc3)nc3ccccc3n12", "values": [{"measurement": "IC50", "setting": "[8]", "result": 1.65, "unit": "µM"}, {"measurement": "IC50", "setting": "[9]", "result": 3.61, "unit": "µM"}, {"measurement": "IC50", "setting": "[10]", "result": 8.84, "unit": "µM"}]}, {"smiles": "CCOc1cc2ncc(C#N)c(Nc3ccc(OCc4ccccc4)cc3)c2cc1NC(=O)/C=C/c1cccnc1", "values": [{"measurement": "IC50", "setting": "[11]", "result": 1.89, "unit": "µM"}, {"measurement": "IC50", "setting": "[12]", "result": 0.597, "unit": "µM"}, {"measurement": "IC50", "setting": "[13]", "result": 0.908, "unit": "µM"}, {"measurement": "IC50", "setting": "[14]", "result": 1.93, "unit": "µM"}]}, {"smiles": "COc1cc(NC(=O)CCCCCCC(=O)NO)ccc1Nc1nccc(-c2cn(C)c3ccccc23)n1", "values": [{"measurement": "IC50", "setting": "[15]", "result": 2.19, "unit": "µM"}, {"measurement": "IC50", "setting": "[16]", "result": 0.42, "unit": "µM"}, {"measurement": "IC50", "setting": "[17]", "result": 1.85, "unit": "µM"}, {"measurement": "IC50", "setting": "[18]", "result": 0.085, "unit": "µM"}, {"measurement": "IC50", "setting": "[19]", "result": 0.6, "unit": "µM"}, {"measurement": "IC50", "setting": "[20]", "result": 0.23, "unit": "µM"}]}, {"smiles": "COc1cc2ncnc(Sc3cccc(NC(=S)Nc4ccc(Br)c(C(F)(F)F)c4)c3)c2cc1OC", "values": [{"measurement": "IC50", "setting": "[21]", "result": 0.01, "unit": "µM"}, {"measurement": "IC50", "setting": "[22]", "result": 5.57, "unit": "µM"}, {"measurement": "IC50", "setting": "[23]", "result": 5.57, "unit": "µM"}, {"measurement": "IC50", "setting": "[24]", "result": 5.57, "unit": "µM"}, {"measurement": "IC50", "setting": "[25]", "result": 0.08, "unit": "µM"}]}, {"smiles": "CC(C)c1ccc(Cn2cc(-c3cc(-c4ccc(Br)cc4)nc(N)n3)c3ccccc32)cc1", "values": [{"measurement": "IC50", "setting": "[26]", "result": 0.595, "unit": "µM"}, {"measurement": "IC50", "setting": "[27]", "result": 0.094, "unit": "µM"}]}, {"smiles": "C=CC(=O)Nc1cc2c(Nc3ccc(Br)cc3F)ncnc2cc1OCCNC(=O)CN(C)C", "values": [{"measurement": "IC50", "setting": "[28]", "result": 0.13, "unit": "µM"}, {"measurement": "IC50", "setting": "[11]", "result": 0.014, "unit": "µM"}, {"measurement": "IC50", "setting": "[29]", "result": 0.103, "unit": "µM"}, {"measurement": "IC50", "setting": "[12]", "result": 0.002, "unit": "µM"}, {"measurement": "IC50", "setting": "[30]", "result": 0.011, "unit": "µM"}, {"measurement": "IC50", "setting": "[31]", "result": 0.003, "unit": "µM"}]}, {"smiles": "Nc1nc(Nc2ccc(COc3cccc(F)c3)cc2)c2c(n1)[nH]c1ccc(O)cc12", "values": [{"measurement": "Ki", "setting": "[32]", "result": 0.081, "unit": "µM"}, {"measurement": "Ki", "setting": "[33]", "result": 0.17, "unit": "µM"}]}, {"smiles": "CCc1ccc(Cn2cc(-c3cc(-c4ccc(Br)cc4)nc(N)n3)c3ccccc32)cc1", "values": [{"measurement": "IC50", "setting": "[26]", "result": 0.518, "unit": "µM"}, {"measurement": "IC50", "setting": "[27]", "result": 0.097, "unit": "µM"}]}, {"smiles": "Nc1nc(-c2ccc(Br)cc2)cc(-c2cn(Cc3cccc(Cl)c3)c3ccccc23)n1", "values": [{"measurement": "IC50", "setting": "[26]", "result": 0.101, "unit": "µM"}, {"measurement": "IC50", "setting": "[27]", "result": 0.195, "unit": "µM"}]}, {"smiles": "COc1cc2ncnc(Oc3cccc(NC(=S)Nc4ccc(Cl)c(C(F)(F)F)c4)c3)c2cc1OC", "values": [{"measurement": "IC50", "setting": "[21]", "result": 0.02, "unit": "µM"}, {"measurement": "IC50", "setting": "[22]", "result": 5.57, "unit": "µM"}, {"measurement": "IC50", "setting": "[23]", "result": 5.57, "unit": "µM"}, {"measurement": "IC50", "setting": "[24]", "result": 5.57, "unit": "µM"}, {"measurement": "IC50", "setting": "[25]", "result": 0.05, "unit": "µM"}]}, {"smiles": "CCOc1cc2ncc(C#N)c(Nc3ccc(OCc4ccccn4)c(Cl)c3)c2cc1NC(=O)/C=C/CN(C)C", "note": "[NERATINIB]", "values": [{"measurement": "IC50", "setting": "[11]", "result": 2.15, "unit": "µM"}]}]}
